Data on ten compounds can be found in ChEMBL document CHEMBL3991601, “The target landscape of clinical kinase drugs” (Science, 2017).

Calls of active or inactive are those of the source. For most assays here, no stated cut-off is given here; in the data, actives have a measured Kd and inactives only a lower limit.

The target in experiment [1] is Tyrosine-protein kinase Yes (Homo sapiens, UniProt P07947).
Experiment [2] has as its target T1, Dual specificity mitogen-activated protein kinase kinase 5 (Homo sapiens, UniProt Q13163).
T1 sequence (Q13163 whole entry): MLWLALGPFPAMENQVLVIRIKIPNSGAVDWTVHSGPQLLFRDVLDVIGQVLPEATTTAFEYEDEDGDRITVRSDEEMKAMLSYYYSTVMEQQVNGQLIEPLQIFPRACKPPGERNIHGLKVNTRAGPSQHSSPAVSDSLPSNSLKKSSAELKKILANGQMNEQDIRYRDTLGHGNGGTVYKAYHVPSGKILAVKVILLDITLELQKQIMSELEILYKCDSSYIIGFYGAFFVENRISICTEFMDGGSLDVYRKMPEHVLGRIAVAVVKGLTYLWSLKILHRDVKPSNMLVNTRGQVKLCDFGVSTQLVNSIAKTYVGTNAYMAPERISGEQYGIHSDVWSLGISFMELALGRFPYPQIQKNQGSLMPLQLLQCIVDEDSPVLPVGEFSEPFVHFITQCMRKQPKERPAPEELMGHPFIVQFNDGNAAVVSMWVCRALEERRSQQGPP

In experiment [3] the target is Ribosomal protein S6 kinase alpha-3 (Homo sapiens, UniProt P51812).
In experiment [4] the target is Adenylate kinase 2, mitochondrial (Homo sapiens, UniProt P54819).
Experiment [5] deals with T2, MAP kinase-activated protein kinase 5 (Homo sapiens, UniProt Q8IW41).
T2 sequence (Q8IW41 whole entry): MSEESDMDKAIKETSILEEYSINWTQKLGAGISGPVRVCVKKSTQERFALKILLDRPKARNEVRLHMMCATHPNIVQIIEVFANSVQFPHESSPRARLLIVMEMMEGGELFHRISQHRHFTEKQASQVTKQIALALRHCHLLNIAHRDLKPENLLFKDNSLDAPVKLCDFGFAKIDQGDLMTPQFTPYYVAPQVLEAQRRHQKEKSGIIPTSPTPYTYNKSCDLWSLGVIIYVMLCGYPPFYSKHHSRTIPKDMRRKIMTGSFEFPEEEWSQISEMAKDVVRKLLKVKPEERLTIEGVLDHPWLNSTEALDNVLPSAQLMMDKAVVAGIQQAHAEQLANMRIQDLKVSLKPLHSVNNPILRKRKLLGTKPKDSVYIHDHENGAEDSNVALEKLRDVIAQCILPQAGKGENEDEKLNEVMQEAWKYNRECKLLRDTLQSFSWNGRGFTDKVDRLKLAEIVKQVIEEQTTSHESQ

Experiment [6] concerns the target MAP/microtubule affinity-regulating kinase 3 (Homo sapiens, UniProt P27448).
Experiment [7] has as its target T3, STE20-related kinase adapter protein alpha (Homo sapiens, UniProt Q7RTN6).
T3 sequence (Q7RTN6 whole entry): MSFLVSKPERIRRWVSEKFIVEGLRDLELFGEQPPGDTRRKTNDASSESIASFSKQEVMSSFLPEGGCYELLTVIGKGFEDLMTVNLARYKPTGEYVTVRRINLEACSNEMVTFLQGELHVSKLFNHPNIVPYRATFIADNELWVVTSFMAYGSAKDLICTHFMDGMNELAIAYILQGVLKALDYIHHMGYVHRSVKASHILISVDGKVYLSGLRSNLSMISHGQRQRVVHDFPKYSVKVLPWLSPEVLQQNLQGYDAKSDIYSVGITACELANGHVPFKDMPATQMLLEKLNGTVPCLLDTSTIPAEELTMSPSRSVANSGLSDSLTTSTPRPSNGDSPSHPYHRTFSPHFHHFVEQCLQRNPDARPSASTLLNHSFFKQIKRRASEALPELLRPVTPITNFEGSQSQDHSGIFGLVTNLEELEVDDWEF

Experiment [8] concerns the target Epidermal growth factor receptor (Homo sapiens, UniProt P00533).
Experiment [9] addresses T4, Mitogen-activated protein kinase kinase kinase 6 (Homo sapiens, UniProt O95382).
T4 sequence (O95382 whole entry): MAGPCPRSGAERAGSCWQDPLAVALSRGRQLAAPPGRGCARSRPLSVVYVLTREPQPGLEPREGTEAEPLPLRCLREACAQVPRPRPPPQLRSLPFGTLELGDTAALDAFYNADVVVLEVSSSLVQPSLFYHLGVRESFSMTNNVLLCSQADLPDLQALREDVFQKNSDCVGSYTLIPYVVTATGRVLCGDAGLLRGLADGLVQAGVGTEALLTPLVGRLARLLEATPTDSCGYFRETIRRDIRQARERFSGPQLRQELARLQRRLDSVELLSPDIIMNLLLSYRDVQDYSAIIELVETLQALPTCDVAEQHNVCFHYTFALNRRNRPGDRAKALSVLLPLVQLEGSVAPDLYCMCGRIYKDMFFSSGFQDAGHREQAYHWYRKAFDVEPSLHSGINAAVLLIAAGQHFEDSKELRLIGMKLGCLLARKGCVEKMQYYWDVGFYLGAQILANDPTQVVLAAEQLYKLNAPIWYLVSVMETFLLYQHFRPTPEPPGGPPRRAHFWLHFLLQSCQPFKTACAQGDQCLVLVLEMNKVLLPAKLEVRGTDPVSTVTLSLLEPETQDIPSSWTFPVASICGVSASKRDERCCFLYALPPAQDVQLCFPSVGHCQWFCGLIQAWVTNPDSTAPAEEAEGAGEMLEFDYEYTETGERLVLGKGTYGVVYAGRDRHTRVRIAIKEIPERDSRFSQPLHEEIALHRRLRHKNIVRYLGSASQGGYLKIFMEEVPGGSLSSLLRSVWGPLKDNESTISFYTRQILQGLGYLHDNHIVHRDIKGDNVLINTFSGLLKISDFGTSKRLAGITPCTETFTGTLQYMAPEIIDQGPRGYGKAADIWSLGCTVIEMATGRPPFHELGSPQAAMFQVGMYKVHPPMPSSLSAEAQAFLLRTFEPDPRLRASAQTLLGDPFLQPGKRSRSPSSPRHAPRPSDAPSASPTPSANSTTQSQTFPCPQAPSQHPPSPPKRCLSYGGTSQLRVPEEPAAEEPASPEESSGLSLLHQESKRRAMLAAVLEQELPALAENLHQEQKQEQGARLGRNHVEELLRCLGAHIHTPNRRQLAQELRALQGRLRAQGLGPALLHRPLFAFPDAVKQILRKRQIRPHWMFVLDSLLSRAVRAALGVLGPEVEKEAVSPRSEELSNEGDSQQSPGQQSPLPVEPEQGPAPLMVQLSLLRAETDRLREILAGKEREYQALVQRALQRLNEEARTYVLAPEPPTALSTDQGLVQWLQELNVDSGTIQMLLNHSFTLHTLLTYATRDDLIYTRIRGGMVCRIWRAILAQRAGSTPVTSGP

For experiment [10], the target named is Cyclin-dependent kinase 6 (Homo sapiens, UniProt Q00534).
Cyclin-dependent kinase 6, sequence (Q00534 whole entry): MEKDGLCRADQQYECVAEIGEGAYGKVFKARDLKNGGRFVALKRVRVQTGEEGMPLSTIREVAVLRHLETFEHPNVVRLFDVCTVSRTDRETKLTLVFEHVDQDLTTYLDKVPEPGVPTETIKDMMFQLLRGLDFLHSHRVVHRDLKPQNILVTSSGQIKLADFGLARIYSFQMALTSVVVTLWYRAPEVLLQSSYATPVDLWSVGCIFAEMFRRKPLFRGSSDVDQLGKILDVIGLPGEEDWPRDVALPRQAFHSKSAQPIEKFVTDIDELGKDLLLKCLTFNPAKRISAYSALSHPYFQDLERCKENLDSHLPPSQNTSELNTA

Epidermal growth factor receptor, sequence (P00533 whole entry): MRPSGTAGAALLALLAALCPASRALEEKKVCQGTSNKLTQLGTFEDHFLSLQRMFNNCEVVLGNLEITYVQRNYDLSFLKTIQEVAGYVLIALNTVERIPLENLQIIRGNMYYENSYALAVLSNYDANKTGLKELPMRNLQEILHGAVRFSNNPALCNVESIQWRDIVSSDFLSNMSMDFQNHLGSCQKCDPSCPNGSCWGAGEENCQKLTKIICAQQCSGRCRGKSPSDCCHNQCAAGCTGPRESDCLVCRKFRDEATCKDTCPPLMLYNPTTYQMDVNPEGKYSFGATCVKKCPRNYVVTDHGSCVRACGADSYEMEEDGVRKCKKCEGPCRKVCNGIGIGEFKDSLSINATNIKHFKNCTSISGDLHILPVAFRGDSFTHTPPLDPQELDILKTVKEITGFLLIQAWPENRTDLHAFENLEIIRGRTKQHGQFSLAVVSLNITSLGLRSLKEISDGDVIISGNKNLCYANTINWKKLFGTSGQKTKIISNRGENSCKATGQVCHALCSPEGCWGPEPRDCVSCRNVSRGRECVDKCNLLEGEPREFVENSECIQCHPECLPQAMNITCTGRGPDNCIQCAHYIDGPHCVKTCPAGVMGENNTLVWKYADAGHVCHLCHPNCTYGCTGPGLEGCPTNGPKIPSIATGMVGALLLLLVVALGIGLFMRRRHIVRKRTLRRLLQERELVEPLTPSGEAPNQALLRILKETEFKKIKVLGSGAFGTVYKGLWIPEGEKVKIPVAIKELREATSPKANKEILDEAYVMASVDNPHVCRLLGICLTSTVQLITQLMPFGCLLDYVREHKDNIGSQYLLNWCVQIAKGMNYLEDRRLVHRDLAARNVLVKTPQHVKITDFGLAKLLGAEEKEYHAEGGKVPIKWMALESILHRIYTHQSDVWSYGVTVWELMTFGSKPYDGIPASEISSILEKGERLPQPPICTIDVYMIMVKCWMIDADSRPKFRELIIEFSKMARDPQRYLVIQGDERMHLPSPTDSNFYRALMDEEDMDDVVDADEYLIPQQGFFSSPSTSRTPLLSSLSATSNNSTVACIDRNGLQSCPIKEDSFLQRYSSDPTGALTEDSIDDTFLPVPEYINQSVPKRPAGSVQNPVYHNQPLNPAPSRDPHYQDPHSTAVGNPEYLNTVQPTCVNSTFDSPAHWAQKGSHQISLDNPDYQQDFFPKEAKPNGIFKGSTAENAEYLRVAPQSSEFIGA
Ribosomal protein S6 kinase alpha-3, sequence (P51812 whole entry): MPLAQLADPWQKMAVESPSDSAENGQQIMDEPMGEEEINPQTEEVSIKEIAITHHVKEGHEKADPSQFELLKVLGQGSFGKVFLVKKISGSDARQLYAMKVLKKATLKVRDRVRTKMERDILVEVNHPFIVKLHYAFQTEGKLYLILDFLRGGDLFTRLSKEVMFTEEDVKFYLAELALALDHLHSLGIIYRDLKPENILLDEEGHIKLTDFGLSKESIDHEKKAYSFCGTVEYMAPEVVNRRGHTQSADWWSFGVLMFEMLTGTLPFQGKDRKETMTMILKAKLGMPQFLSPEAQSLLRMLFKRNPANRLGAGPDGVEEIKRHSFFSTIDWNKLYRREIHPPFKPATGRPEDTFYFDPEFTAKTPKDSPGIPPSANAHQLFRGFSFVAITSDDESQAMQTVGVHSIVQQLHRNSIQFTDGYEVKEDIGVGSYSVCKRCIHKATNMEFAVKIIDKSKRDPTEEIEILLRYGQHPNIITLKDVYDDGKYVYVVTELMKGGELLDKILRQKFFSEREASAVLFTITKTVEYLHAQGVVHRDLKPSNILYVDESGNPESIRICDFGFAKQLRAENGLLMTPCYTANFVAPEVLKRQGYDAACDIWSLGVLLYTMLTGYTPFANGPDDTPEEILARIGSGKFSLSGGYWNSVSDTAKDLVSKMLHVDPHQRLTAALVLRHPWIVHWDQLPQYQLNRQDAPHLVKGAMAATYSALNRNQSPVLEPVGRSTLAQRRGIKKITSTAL
MAP/microtubule affinity-regulating kinase 3, sequence (P27448 whole entry): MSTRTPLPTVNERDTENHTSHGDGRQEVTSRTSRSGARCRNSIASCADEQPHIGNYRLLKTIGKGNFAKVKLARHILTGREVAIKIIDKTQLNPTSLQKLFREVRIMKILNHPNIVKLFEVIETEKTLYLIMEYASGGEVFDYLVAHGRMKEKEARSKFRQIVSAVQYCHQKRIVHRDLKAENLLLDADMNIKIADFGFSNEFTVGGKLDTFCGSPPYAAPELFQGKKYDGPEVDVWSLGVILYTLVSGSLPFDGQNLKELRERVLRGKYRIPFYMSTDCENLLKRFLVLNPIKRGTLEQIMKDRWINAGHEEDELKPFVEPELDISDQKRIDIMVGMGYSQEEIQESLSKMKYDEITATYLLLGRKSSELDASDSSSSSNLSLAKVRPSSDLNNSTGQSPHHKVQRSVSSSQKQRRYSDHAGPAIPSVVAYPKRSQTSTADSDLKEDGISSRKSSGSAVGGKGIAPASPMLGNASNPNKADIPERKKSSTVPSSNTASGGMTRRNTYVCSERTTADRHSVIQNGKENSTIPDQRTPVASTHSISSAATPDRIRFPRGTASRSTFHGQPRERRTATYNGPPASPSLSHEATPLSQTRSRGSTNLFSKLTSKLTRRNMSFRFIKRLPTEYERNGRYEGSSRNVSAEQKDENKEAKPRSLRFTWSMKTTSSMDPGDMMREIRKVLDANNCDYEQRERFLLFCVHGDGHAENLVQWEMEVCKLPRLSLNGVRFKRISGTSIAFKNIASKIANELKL
Tyrosine-protein kinase Yes, sequence (P07947 whole entry): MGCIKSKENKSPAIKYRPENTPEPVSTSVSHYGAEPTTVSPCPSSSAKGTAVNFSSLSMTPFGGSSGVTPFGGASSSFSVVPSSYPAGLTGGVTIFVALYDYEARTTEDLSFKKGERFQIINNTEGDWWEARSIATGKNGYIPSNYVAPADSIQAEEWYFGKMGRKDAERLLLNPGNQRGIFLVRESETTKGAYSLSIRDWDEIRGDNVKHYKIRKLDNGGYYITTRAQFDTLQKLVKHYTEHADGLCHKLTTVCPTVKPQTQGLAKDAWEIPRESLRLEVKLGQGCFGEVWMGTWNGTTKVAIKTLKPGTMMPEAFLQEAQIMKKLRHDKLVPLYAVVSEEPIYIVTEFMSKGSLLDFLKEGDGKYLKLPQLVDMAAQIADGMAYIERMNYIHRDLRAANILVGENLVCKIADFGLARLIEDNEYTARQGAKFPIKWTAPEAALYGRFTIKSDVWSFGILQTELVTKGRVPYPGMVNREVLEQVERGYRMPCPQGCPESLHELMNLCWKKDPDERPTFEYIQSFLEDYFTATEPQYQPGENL

Take `COc1cc([C@@H]2c3cc4c(cc3[C@H](O)[C@H]3COC(=O)[C@@H]23)OCO4)cc(OC)c1OC` [AXL-1717]: the Kd in experiment [1], in experiment [2], in [3], in [4], in [5] and in [6] was > 30 µM (inactive) in each case. In addition, the Kd in experiment [7], in [8], in [9] and in experiment [10] was > 30 µM (inactive) each time.
For `Cc1cc(C(=O)NOCCO)c(Nc2ccc(I)cc2F)n(C)c1=O` [AZD-8330], the Kd is > 30 µM (inactive) in experiment [1]; 2.66 µM (active) in experiment [2]; > 30 µM (inactive) in experiment [3]; > 30 µM (inactive) in experiment [4]; > 30 µM (inactive) in experiment [5]; > 30 µM (inactive) in experiment [6]. In addition, the Kd in experiment [7], in experiment [8], in experiment [9] and in experiment [10] was > 30 µM (inactive) each time.
Turning to `Cn1cnc2c(F)c(Nc3ccc(Br)cc3F)c(C(=O)NOCCO)cc21` [BINIMETINIB], the Kd in experiment [1], in experiment [2], in [3], in experiment [4], in experiment [5] and in experiment [6] was > 30 µM (inactive) each time. Further, the Kd in experiment [7], in experiment [8], in [9] and in experiment [10] was > 30 µM (inactive) in each case.
Regarding `COc1c(OCCCN2CCOCC2)ccc2c1N=C(NC(=O)c1cnc(N)nc1)N1CCN=C21` [COPANLISIB], the Kd in experiment [1], in experiment [2], in experiment [3], in experiment [4], in experiment [5] and in experiment [6] was > 30 µM (inactive) each time. Besides, the Kd in experiment [7], in [8], in experiment [9] and in [10] was > 30 µM (inactive) in each case.
On to `O=C(Nc1nc2cccc(-c3ccc(CN4CCS(=O)(=O)CC4)cc3)n2n1)C1CC1` [FILGOTINIB], for which the Kd in [1], in experiment [2], in experiment [3], in [4], in experiment [5] and in [6] was > 30 µM (inactive) throughout. Further, the Kd in experiment [7], in experiment [8], in experiment [9] and in experiment [10] was > 30 µM (inactive) in each case.
`Cc1cccc(-c2nn3c(c2-c2ccnc4ccc(C(N)=O)cc24)CCC3)n1` [GALUNISERTIB]: the Kd in experiment [1], in [2], in [3], in experiment [4], in experiment [5] and in experiment [6] was > 30 µM (inactive) each time. Also, the Kd in [7], in [8], in [9] and in [10] was > 30 µM (inactive) throughout.
Consider `COc1ccc(S(=O)(=O)N(C(C)=O)c2ccccc2/C=C/c2cc[n+]([O-])cc2)cc1` [HMN-214], for which the Kd in [1], in experiment [2], in [3], in experiment [4], in experiment [5] and in [6] was > 30 µM (inactive) in each case. Further, the Kd in experiment [7], in [8], in [9] and in [10] was > 30 µM (inactive) each time.
With `O=C(Nc1cc(C(F)(F)F)cc(C(F)(F)F)c1)c1cc(Cl)ccc1O` [IMD-0354], the Kd in experiment [1], in experiment [2], in [3], in experiment [4], in experiment [5] and in experiment [6] was > 30 µM (inactive) each time. For the same compound, the Kd in experiment [7], in experiment [8], in experiment [9] and in experiment [10] was > 30 µM (inactive) each time.
On to `CNC(=O)c1cccc2cc(Oc3ccnc4cc(OCC5(N)CC5)c(OC)cc34)ccc12` [LUCITANIB], for which the Kd in experiment [1], in experiment [2], in [3], in experiment [4], in [5] and in experiment [6] was > 30 µM (inactive) each time. In addition, the Kd in [7], in experiment [8], in experiment [9] and in [10] was > 30 µM (inactive) throughout.
In the case of `NC1(c2ccc(-c3nc4ccn5c(=O)[nH]nc5c4cc3-c3ccccc3)cc2)CCC1` [MK-2206], the Kd in experiment [1], in experiment [2], in [3], in experiment [4], in experiment [5] and in experiment [6] was > 30 µM (inactive) throughout. Further, the Kd in [7], in experiment [8], in experiment [9] and in experiment [10] was > 30 µM (inactive) in each case.
